Assay results taken from BindingDB's records for doi:10.1124/mol.64.6.1283 (Barrow Neurological Institute, 2003).

Target: Neuronal acetylcholine receptor subunit alpha-4 (Homo sapiens, UniProt P43681)
Sequence (P43681 whole entry): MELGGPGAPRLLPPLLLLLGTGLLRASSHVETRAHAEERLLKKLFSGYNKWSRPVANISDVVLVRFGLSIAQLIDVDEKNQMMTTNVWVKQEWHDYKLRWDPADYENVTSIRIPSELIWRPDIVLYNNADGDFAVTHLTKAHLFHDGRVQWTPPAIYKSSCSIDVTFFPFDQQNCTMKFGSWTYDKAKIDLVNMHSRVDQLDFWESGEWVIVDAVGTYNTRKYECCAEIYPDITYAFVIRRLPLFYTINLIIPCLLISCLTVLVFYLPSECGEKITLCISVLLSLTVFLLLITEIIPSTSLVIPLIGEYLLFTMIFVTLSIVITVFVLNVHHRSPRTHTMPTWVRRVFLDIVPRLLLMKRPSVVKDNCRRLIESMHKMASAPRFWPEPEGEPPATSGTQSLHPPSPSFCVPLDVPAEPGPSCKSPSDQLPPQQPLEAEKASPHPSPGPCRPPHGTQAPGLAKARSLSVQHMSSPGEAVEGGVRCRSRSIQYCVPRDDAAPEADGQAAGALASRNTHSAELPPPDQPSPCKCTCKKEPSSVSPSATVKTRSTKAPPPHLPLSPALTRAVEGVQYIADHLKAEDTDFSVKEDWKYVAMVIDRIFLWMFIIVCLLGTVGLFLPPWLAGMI

Point of comparison: `C[N+]1(C)CCN(c2ccccc2)CC1` [DMPP], Ki 20 nM. Against it:
- C[N+](C)(C)CCOC(=O)CCCCCCC(=O)OCC[N+](C)(C)C [NSC_123990] — 1.5-fold lower, 13 nM
- CCN1CC2(COC(=O)c3ccccc3-n3c(O)cc(C)c3O)CCC(OC)C34C5CC6C(OC)CC(O)(C5C6OC)C(O)(C(OC)C23)C14 (centres undefined) [CAS_21019-30-7] — 140-fold higher, 2800 nM
- C[N+](C)(C)CCOC(N)=O [(2-Hydroxyethyl)trimethyl ammonium chloride carbamate] — 7.5-fold higher, 150 nM
- C[N+](C)(C)CCCCCC[N+](C)(C)C [Hexamethoniumdibromide] — higher, > 10000 nM
- CNC(=O)Oc1ccc2c(c1)C1(C)CCN(C)C1N2C (centres undefined) [1,3a,8-trimethyl-1H,2H,3H,3aH,8H,8aH-pyrrolo[2,3-b]indol-5-yl N-methylcarbamate] — higher, > 10000 nM
- C[N+](C)(C)CCCCCCCCCC[N+](C)(C)C [Decamethonium Iodide] — 65-fold higher, 1300 nM
- C=CC[N+]12CCC34c5ccccc5N5C=C6C7CC8C9(CC[N+]8(CC=C)CC7=CCO)c7ccccc7N(C=C(C(CC31)C(=CCO)C2)C54)C69 (centres undefined) [NSC_5311001] — higher, > 10000 nM
- O=c1cccc2n1CC1CNCC2C1 (centres undefined) [CAS_485-35-8] — 83-fold lower, 0.24 nM
- CC(=O)OC1CC2CCC3C(CCC4(C)C3CC([N+]3(C)CCCCC3)C4OC(C)=O)C2(C)CC1[N+]1(C)CCCCC1 (centres undefined) [NSC_27350] — higher, > 10000 nM
- CC(=O)SCC[N+](C)(C)C [ATC] — 8.5-fold higher, 170 nM
- COc1cc2c3cc1Oc1cc(ccc1O)C[C@H]1c4c(cc(OC)c(O)c4Oc4ccc(cc4)C[C@@H]3N(C)CC2)CC[N+]1(C)C [CAS_57-94-3] — 100-fold higher, 2000 nM
- C[N+](C)(C)CCOC(=O)CCC(=O)OCC[N+](C)(C)C [2,2'-[(1,4-dioxobutane-1,4-diyl)bis(oxy)]bis(N,N,N-trimethylethanaminium)] — 140-fold higher, 2900 nM
- CC(=O)OC1CC2CCC3C(CCC4(C)C3CC([N+]3(C)CCCCC3)C4OC(C)=O)C2(C)CC1N1CCCCC1 (centres undefined) [CAS_39764] — higher, > 10000 nM
